From patent US20060142379A1, “Use of AP-1 activators to treat glaucoma and ocular hypertension” (priority 1999, published 2006)

Columns and labels:
[1] = system: perfused human ocular anterior segment; experiment: human ocular perfusion organ culture model, aqueous outflow rate; details: for Flow Rate (% of Time 0) (Mean ± SEM, n = 6): t-BHQ 10 μM
Protocol: The study was performed as follows: Human donor eyes less than 24 hours post mortem were used. The globe was sectioned equatorially followed by the removal of vitreous, lens, zonules, iris, and most of the ciliary body. The anterior segment was then mounted on a perfusion dish, perfused with cell culture medium at a constant hydrostatic pressure of 10 mm Hg (Johnson et al., Human trabecular meshwork organ culture: A new method, Invest Ophthalmol Vis Sci., volume 28, pages 945-953 (1987); Erickson-Lamy et al., Outflow facility studies in the perfused human ocular anterior segment, Exp. Eye Res., volume 52, pages 723-731 (1991); and Clark et al., Dexamethasone-induced ocular hypertension in perfusion cultured human eyes, Invest. Ophthalmol. Vis. Sci., volume 36, pages 478-489 (1995)). The flow rate of the perfusate was measured by weighing the reservoir at predetermined periods. After 2 to 4 days of equilibrium period, one eye of each of the donor pair was perfused with the test compound, t-BHQ (10 μM), while the other was perfused with vehicle (control).

[2] = system: AP-1; details: nuclear extracts, 32P-labelled AP-1 oligonucleotide probe; cited from earlier work

In the case of `CC(C)(C)c1cc(O)ccc1O` [t-BHQ, tert-butylhydroquinone], the “basal flow rate at time 0” value ([1]; drug-treated eyes, time 0 (basal)) is reported as “(1) The basal flow rate at time 0 for vehicle-treated eyes was 3.55 ± 1.00 μL/min, and that for drug-treated eyes was 4.09 ± 0.63 μL/min”, the “Flow Rate (% of Time 0) (Mean ± SEM, n = 6)” value ([1]; 0 hours (baseline)) is reported as 100.0 % of Time 0 and the “Flow Rate (% of Time 0) (Mean ± SEM, n = 6)” value ([1]; 4 hours after treatment) is reported as 105.8 ± 5.4 % of Time 0. The “Flow Rate (% of Time 0) (Mean ± SEM, n = 6)” value ([1]; 24 hours after treatment) was 102.9 ± 3.9 % of Time 0, the “Flow Rate (% of Time 0) (Mean ± SEM, n = 6)” value ([1]; 48 hours after treatment) was 105.2 ± 10.1 % of Time 0 and the “Flow Rate (% of Time 0) (Mean ± SEM, n = 6)” value ([1]; 72 hours after treatment) was 111.8 ± 11.8 % of Time 0. For the same compound, the “Flow Rate (% of Time 0) (Mean ± SEM, n = 6)” value ([1]; 96 hours after treatment) was 120.9 ± 16.4 % of Time 0, the “Flow Rate (% of Time 0) (Mean ± SEM, n = 6)” value ([1]; −4 hours (before treatment)) was 97.0 ± 4.0 % of Time 0 and the “AP-1 DNA binding activity (AP-1 Activator)” value [2] was “demonstrated to be AP-1 Activators”.
